A short description of this data set: Solubility in phosphate buffer pH 7.4. A digest of the protocol:
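Solubility at pH 7.4 determined by stepwise addition of 200 mM phosphate buffer in 100 μL increments to 3 mg peptide, mixing briefly each time, until no insoluble material remained, then measured by liquid chromatography.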

Setting [1] is: pH 7.4, aqueous buffer, pH 7.4 Phosphate Buffer - Solubility, 200 mM Phosphate buffer pH 7.4.
Setting [2] is: pH 7.4, solubility in phosphate buffer at pH 7.4, 200 mM phosphate buffer pH 7.4.

Starred links: 1 amine or outer side, 2 acyl side, 3 side chain; linkers in the order of their positions; H or OH if unused. Non-standard residues stand in square brackets, D forms with d. Residues, ends and D or L forms follow the SMILES beside them. Groups on a side chain read outwards from the residue. *: point of attachment. C18 diacid = O=C(O)CCCCCCCCCCCCCCCCC(=O)*; C17 diacid = O=C(O)CCCCCCCCCCCCCCCC(=O)*; γGlu = O=C(O)[C@H](CCC(=O)[*:2])N[*:1]; NMeY = CN[C@@H](Cc1ccc(O)cc1)C(=O)O; AEEA = NCCOCCOCC(=O)O; Aib = CC(C)(N)C(=O)O Some results are limits rather than exact numbers.

A word on the solubility: it is how much of the substance goes into solution per volume.

As for `CC[C@H](C)[C@H](NC(=O)[C@H](Cc1ccccc1)NC(=O)[C@@H](NC(=O)CNC(=O)[C@H](CCC(=O)O)NC(=O)C(C)(C)NC(=O)[C@H](Cc1ccc(O)cc1)NC)[C@@H](C)O)C(=O)N[C@@H](CO)C(=O)N[C@@H](CC(=O)O)C(=O)N[C@@H](Cc1ccc(O)cc1)C(=O)N[C@@H](CO)C(=O)N[C@H](C(=O)NC(C)(C)C(=O)N[C@@H](CC(C)C)C(=O)N[C@@H](CC(=O)O)C(=O)N[C@@H](CCCNC(=N)N)C(=O)NC(C)(C)C(=O)N[C@@H](C)C(=O)N[C@@H](CCC(N)=O)C(=O)NC(C)(C)C(=O)N[C@@H](CCCCNC(=O)COCCOCCNC(=O)COCCOCCNC(=O)CC[C@H](NC(=O)CC[C@H](NC(=O)CCCCCCCCCCCCCCCCC(=O)O)C(=O)O)C(=O)O)C(=O)N[C@@H](Cc1ccccc1)C(=O)N[C@H](C(=O)N[C@@H](CC(N)=O)C(=O)N[C@@H](Cc1c[nH]c2ccccc12)C(=O)N[C@@H](CC(C)C)C(=O)N[C@@H](CC(C)C)C(=O)N[C@@H](C)C(=O)N[C@@H](CCC(N)=O)C(=O)N[C@@H](CCCNC(=N)N)C(=O)N1CCC[C@H]1C(=O)N[C@@H](CO)C(=O)N[C@@H](CO)C(=O)NCC(=O)N[C@@H](C)C(=O)N1CCC[C@H]1C(=O)N1CCC[C@H]1C(=O)N1CCC[C@H]1C(=O)N[C@@H](CO)C(N)=O)C(C)C)[C@@H](C)CC` [Compound 89] (H-[NMeY][Aib]EGTFISDYSI[Aib]LDR[Aib]AQ[Aib]K([AEEA-AEEA-γGlu-γGlu-C18 diacid])FVNWLLAQRPSSGAPPPS-NH2), the solubility is not below 60 mg/mL under setting [1] and not below 15 mg/mL under setting [2].

The compound `CC[C@H](C)[C@H](NC(=O)[C@H](CO)NC(=O)[C@H](Cc1ccc(O)cc1)NC(=O)[C@H](CC(=O)O)NC(=O)[C@H](CO)NC(=O)[C@@H](NC(=O)[C@H](Cc1ccccc1)NC(=O)[C@@H](NC(=O)CNC(=O)[C@H](CCC(=O)O)NC(=O)C(C)(C)NC(=O)[C@H](Cc1ccc(O)cc1)NC)[C@@H](C)O)[C@@H](C)CC)C(=O)N[C@@H](C)C(=O)N[C@@H](CC(C)C)C(=O)N[C@@H](CC(=O)O)C(=O)N[C@@H](CCCNC(=N)N)C(=O)N[C@@H](CCCCNC(=O)CNC(=O)CNC(=O)CNC(=O)CNC(=O)CNC(=O)CCCCCCCCCCCCCCCCC(=O)O)C(=O)N[C@@H](C)C(=O)N[C@@H](CCC(N)=O)C(=O)NC(C)(C)C(=O)N[C@@H](CC(N)=O)C(=O)N[C@@H](Cc1ccccc1)C(=O)N[C@H](C(=O)N[C@@H](CC(N)=O)C(=O)N[C@@H](Cc1c[nH]c2ccccc12)C(=O)N[C@@H](CC(C)C)C(=O)N[C@@H](CC(C)C)C(=O)N[C@@H](C)C(=O)N[C@@H](CCC(N)=O)C(=O)N[C@@H](CO)C(=O)N1CCC[C@H]1C(=O)NCC(=O)O)C(C)C` [Compound 290] displayed a solubility (pH 7.4, aqueous buffer) not below 7.5 mg/mL.

Under setting [1], `CC[C@H](C)[C@H](NC(=O)[C@H](CO)NC(=O)[C@H](Cc1ccc(O)cc1)NC(=O)[C@H](CC(=O)O)NC(=O)[C@H](CO)NC(=O)[C@@H](NC(=O)[C@H](Cc1ccccc1)NC(=O)[C@@H](NC(=O)CNC(=O)[C@H](CCC(=O)O)NC(=O)C(C)(C)NC(=O)[C@H](Cc1ccc(O)cc1)NC)[C@@H](C)O)[C@@H](C)CC)C(=O)N[C@@H](C)C(=O)N[C@@H](CC(C)C)C(=O)N[C@@H](CC(=O)O)C(=O)N[C@@H](CCCNC(=N)N)C(=O)N[C@@H](CCCCNC(=O)CNC(=O)CNC(=O)CNC(=O)CNC(=O)CNC(=O)CC[C@H](NC(=O)CCCCCCCCCCCCCCCC(=O)O)C(=O)O)C(=O)N[C@@H](Cc1c[nH]cn1)C(=O)N[C@@H](CCC(N)=O)C(=O)NC(C)(C)C(=O)N[C@@H](CC(N)=O)C(=O)N[C@@H](Cc1ccccc1)C(=O)N[C@H](C(=O)N[C@@H](CC(N)=O)C(=O)N[C@@H](Cc1c[nH]c2ccccc12)C(=O)N[C@@H](CC(C)C)C(=O)N[C@@H](CC(C)C)C(=O)N[C@@H](C)C(=O)N[C@@H](CCC(N)=O)C(=O)N[C@@H](CCCNC(=N)N)C(=O)N1CCC[C@H]1C(=O)N[C@@H](CO)C(=O)N[C@@H](CO)C(=O)NCC(=O)N[C@@H](C)C(=O)N1CCC[C@H]1C(=O)N1CCC[C@H]1C(=O)N1CCC[C@H]1C(=O)N[C@@H](CO)C(=O)O)C(C)C` [Compound 20] registered a solubility not below 15 mg/mL.

Take `CC[C@H](C)[C@H](NC(=O)[C@H](CO)NC(=O)[C@H](Cc1ccc(O)cc1)NC(=O)[C@H](CC(=O)O)NC(=O)[C@H](CO)NC(=O)[C@@H](NC(=O)[C@H](Cc1ccccc1)NC(=O)[C@@H](NC(=O)CNC(=O)[C@H](CCC(=O)O)NC(=O)C(C)(C)NC(=O)[C@@H](N)Cc1ccc(O)cc1)[C@@H](C)O)[C@@H](C)CC)C(=O)N[C@@H](C)C(=O)N[C@@H](CC(C)C)C(=O)N[C@@H](CC(=O)O)C(=O)N[C@@H](CCCCN)C(=O)N[C@H](C(=O)N[C@@H](CCCCNC(=O)COCCOCCNC(=O)COCCOCCNC(=O)CC[C@H](NC(=O)CCCCCCCCCCCCCCCCC(=O)O)C(=O)O)C(=O)N[C@@H](CCC(N)=O)C(=O)NC(C)(C)C(=O)N[C@@H](CC(=O)O)C(=O)N[C@@H](Cc1ccccc1)C(=O)N[C@H](C(=O)N[C@@H](CCC(=O)O)C(=O)N[C@@H](Cc1c[nH]c2ccccc12)C(=O)N[C@@H](CC(C)C)C(=O)N[C@@H](CC(C)C)C(=O)N[C@@H](C)C(=O)N[C@@H](CCC(N)=O)C(=O)N[C@@H](CCCNC(=N)N)C(=O)NCC(=O)O)C(C)C)[C@@H](C)CC` [Compound 160] (H-Y[Aib]EGTFISDYSIALDKIK([AEEA-AEEA-γGlu-C18 diacid])Q[Aib]DFVEWLLAQRG-OH): the solubility reads like this: (pH 7.4) not below 15 mg/mL; (pH 7.4, aqueous buffer) not below 30 mg/mL.

As to `CC[C@H](C)[C@H](NC(=O)[C@H](Cc1ccccc1)NC(=O)[C@@H](NC(=O)CNC(=O)[C@H](CCC(=O)O)NC(=O)C(C)(C)NC(=O)[C@H](Cc1ccc(O)cc1)NC)[C@@H](C)O)C(=O)N[C@@H](CO)C(=O)N[C@@H](CC(=O)O)C(=O)N[C@@H](Cc1ccc(O)cc1)C(=O)N[C@@H](CO)C(=O)N[C@H](C(=O)NC(C)(C)C(=O)N[C@@H](CCCCNC(=O)COCCOCCNC(=O)COCCOCCNC(=O)CC[C@H](NC(=O)CC[C@H](NC(=O)CCCCCCCCCCCCCCCC(=O)O)C(=O)O)C(=O)O)C(=O)N[C@@H](CC(=O)O)C(=O)N[C@@H](CCCNC(=N)N)C(=O)NC(C)(C)C(=O)N[C@@H](C)C(=O)N[C@@H](CCC(N)=O)C(=O)NC(C)(C)C(=O)N[C@@H](CC(N)=O)C(=O)N[C@@H](Cc1ccccc1)C(=O)N[C@H](C(=O)N[C@@H](CC(N)=O)C(=O)N[C@@H](Cc1c[nH]c2ccccc12)C(=O)N[C@@H](CC(C)C)C(=O)N[C@@H](CC(C)C)C(=O)N[C@@H](C)C(=O)N[C@@H](CCC(N)=O)C(=O)N[C@@H](CCCNC(=N)N)C(=O)NCC(=O)NCC(=O)NCC(=O)NCC(=O)N[C@@H](CO)C(N)=O)C(C)C)[C@@H](C)CC` [Compound 32] (H-[NMeY][Aib]EGTFISDYSI[Aib]K([AEEA-AEEA-γGlu-γGlu-C17 diacid])DR[Aib]AQ[Aib]NFVNWLLAQRGGGGS-NH2), the solubility is not below 15 mg/mL (pH 7.4) and not below 30 mg/mL (pH 7.4, aqueous buffer).

On to `CC[C@H](C)[C@H](NC(=O)[C@H](Cc1ccccc1)NC(=O)[C@@H](NC(=O)CNC(=O)[C@H](CCC(=O)O)NC(=O)C(C)(C)NC(=O)[C@H](Cc1ccc(O)cc1)NC)[C@@H](C)O)C(=O)N[C@@H](CO)C(=O)N[C@@H](CC(=O)O)C(=O)N[C@@H](Cc1ccc(O)cc1)C(=O)N[C@@H](CO)C(=O)N[C@H](C(=O)NC(C)(C)C(=O)N[C@@H](CCCCNC(=O)COCCOCCNC(=O)COCCOCCNC(=O)CC[C@H](NC(=O)CC[C@H](NC(=O)CCCCCCCCCCCCCCCCC(=O)O)C(=O)O)C(=O)O)C(=O)N[C@@H](CC(=O)O)C(=O)N[C@@H](CCCNC(=N)N)C(=O)NC(C)(C)C(=O)N[C@@H](C)C(=O)N[C@@H](CCC(N)=O)C(=O)NC(C)(C)C(=O)N[C@@H](CC(N)=O)C(=O)N[C@@H](Cc1ccccc1)C(=O)N[C@H](C(=O)N[C@@H](CC(N)=O)C(=O)N[C@@H](Cc1c[nH]c2ccccc12)C(=O)N[C@@H](CC(C)C)C(=O)N[C@@H](CC(C)C)C(=O)N[C@@H](C)C(=O)N[C@@H](CCC(N)=O)C(=O)N[C@@H](CCCNC(=N)N)C(=O)N1CCC[C@H]1C(=O)N[C@@H](CO)C(=O)N[C@@H](CO)C(=O)NCC(=O)N[C@@H](C)C(=O)N1CCC[C@H]1C(=O)N1CCC[C@H]1C(=O)N1CCC[C@H]1C(=O)N[C@@H](CO)C(N)=O)C(C)C)[C@@H](C)CC` [Compound 28] (H-[NMeY][Aib]EGTFISDYSI[Aib]K([AEEA-AEEA-γGlu-γGlu-C18 diacid])DR[Aib]AQ[Aib]NFVNWLLAQRPSSGAPPPS-NH2), for which the solubility runs as follows: under setting [1], not below 30 mg/mL; under setting [2], not below 15 mg/mL.

Regarding `CC[C@H](C)[C@H](NC(=O)[C@H](CO)NC(=O)[C@H](Cc1ccc(O)cc1)NC(=O)[C@H](CC(=O)O)NC(=O)[C@H](CO)NC(=O)[C@@H](NC(=O)[C@H](Cc1ccccc1)NC(=O)[C@@H](NC(=O)CNC(=O)[C@H](CCC(=O)O)NC(=O)C(C)(C)NC(=O)[C@H](Cc1ccc(O)cc1)NC)[C@@H](C)O)[C@@H](C)CC)C(=O)N[C@@H](C)C(=O)N[C@@H](CC(C)C)C(=O)N[C@@H](CC(=O)O)C(=O)N[C@@H](CCCNC(=N)N)C(=O)NC(C)(C)C(=O)N[C@@H](C)C(=O)N[C@@H](CCC(N)=O)C(=O)NC(C)(C)C(=O)N[C@@H](CCCCNC(=O)COCCOCCNC(=O)COCCOCCNC(=O)CC[C@H](NC(=O)CC[C@H](NC(=O)CCCCCCCCCCCCCCCCC(=O)O)C(=O)O)C(=O)O)C(=O)N[C@@H](Cc1ccccc1)C(=O)N[C@H](C(=O)N[C@@H](CCC(=O)O)C(=O)N[C@@H](Cc1c[nH]c2ccccc12)C(=O)N[C@@H](CC(C)C)C(=O)N[C@@H](CC(C)C)C(=O)N[C@@H](C)C(=O)N[C@@H](CCC(N)=O)C(=O)N[C@@H](CO)C(=O)N1CCC[C@H]1C(=O)NCC(=O)O)C(C)C` [Compound 119] (H-[NMeY][Aib]EGTFISDYSIALDR[Aib]AQ[Aib]K([AEEA-AEEA-γGlu-γGlu-C18 diacid])FVEWLLAQSPG-OH), the solubility is, setting by setting: (pH 7.4) not below 15 mg/mL; (pH 7.4, aqueous buffer) not below 30 mg/mL.

These data come from US20230143604A1, “QW DOSING OF GIP RECEPTOR AGONIST PEPTIDE COMPOUNDS AND USES THEREOF” (TAKEDA PHARMACEUTICAL COMPANY LIMITED, priority 2020, published 2023).
